Assay results taken from patent US20230021562A1, “[…] D[…]-1 INHIBITORS” (priority 2019, published 2023).
Several values for one entry are separate records, joined by “and”; a condition that tells them apart may be missing. Identical values can stand only once. Like-named read-outs stand apart in the source and are kept apart here.

Experiments:
[1] = target: Myeloid Cell Leukemia 1 (Mcl-1) (Homo sapiens, UniProt Q07820); experiment: biochemical; assay type: binding; conditions: HTRF Ki (nM)
MOLP8 cell line = experiment: MOLP8 CellEvent Caspase-3/7 Green live-cell IncuCyte apoptosis assay; assay type: cell-based, human; conditions: averaged values
Experimental: MCL-1 is a regulator of apoptosis and is highly over-expressed in tumor cells that escape cell death. The assay evaluates the cellular potency of small-molecule compounds targeting regulators of the apoptosis pathway, primarily MCL-1, Bfl-1, Bcl-2, and other proteins of the Bcl-2 family. Protein-protein inhibitors disrupting the interaction of anti-apoptotic regulators with BH3-domain proteins initiate apoptosis.
Activation of the apoptotic pathway was measured using the CellEvent™ Caspase-3/7 Green ReadyProbes™ Reagent (Thermo Fisher C10423, C10723). This assay produces a green fluorescent stain in cells that enter the apoptosis pathway. CellEvent® Caspase-3/7 Green reagent is a four amino acid peptide (DEVD) conjugated to a nucleic acid-binding dye that is non-fluorescent when not bound to DNA. The CellEvent® Caspase-3/7 Green reagent is intrinsically non-fluorescent, as the DEVD peptide inhibits binding of the dye to DNA. Upon activation of caspase-3/7 in apoptotic cells, the DEVD peptide is cleaved and the free dye can bind DNA, generating a bright green fluorescence. The activation of Caspase-3 and Caspase-7 is downstream of inhibition of MCL-1 or other apoptosis inhibiting proteins in cell lines that are dependent on them.
The live-cell readout on the IncuCyte permits tracking over time of the Caspase activation. […] The IncuCyte readout also allows one to normalize for cell number, as the suspension cells are hard to distribute evenly.
Signals were measured every 2 h for a duration of 22 h. The ratio of the Caspase mask to the Confluence mask, per image, as raw data, was calculated and the kinetic trace for every well was exported to Genedata Screener for analysis.
In Genedata Screener values for 6 h, 12 h, and 22 h from the kinetic traces were extracted. The values were normalized against negative controls (untreated cells). A standard dose-response analysis was performed on the normalized data.
The following data was reported at each of the following three aforementioned time points: (a) The dose-response curve, (b) The qAC50 and qAC50 Mode, and (c) Max Activity.
Cells were maintained in culture medium containing 10% Heat Inactivated (HI) FBS, 2 mM L-Glutamine and 50 μg/mL Gentamycin phenol red free RPMI-1640. Cells were split at 0.4 million/mL twice a week.
On Day 1, plates containing individual wells with test compounds at 10 mM concentration, 150 nL per well. The final concentrations range from […] compound (and no compound control) and compounds were thawed at room temperature for 1 hour. 25 μl of prewarmed medium was added into each well by multidrop (column 1, 3-22, 24), followed by addition of DMSO control (0.6% DMSO) in column 2. The plate was sealed using Breathe-Easy® sealing membrane and shaken for 30 min at room temperature to dissolve the test compound(s) in medium. The plate was then kept in the incubator for 1 hour at 37° C., 5% CO2.
MOLP8 cells in medium at […] (20000/50 μl final in assay) were prepared with CellEvent™ Caspase-3/7 Green Detection Reagent at 4 μM (2 μM final in assay). Once prepared, the cells were added to the test compound plate in an amount of 20000 and the plate was immediately placed in the IncuCyte and imaging started using following settings: 10× objective, 2 s exposure time in green channel, interval of 2 h, acquisition stopped after 22 h.
For analysis in IncuCyte, a Basic Analysis protocol was defined to calculate the “confluence” and “caspase” areas from the “Phase” and “green” images, respectively, as follows: (a) Confluence: Segmentation Adjustment 1, Hole Fill 0, Adjust Size −2, No filters (b) Caspase: Top-Hat segmentation, Radius 10, Threshold 0.3 GCU, Edge Split On with sensitivity 0, Hole Fill 0, Adjust Size 1, and filter on a minimum Area of 20 μm^2. The analyzer is trained on a sufficient number of positive and negative control wells, as well as compound treated wells, verifying that the “confluence” layer detects both live and dead (condensed) cells. […]

[2] = Homo sapiens, MOLP-8, 6 h, read-out: MOLP8 Caspase 3/7 AC50 at 6 h (μM), MOLP8 cells, 6 h
[3] = Homo sapiens, MOLP-8, 12 h, read-out: MOLP8 Caspase 3/7 AC50 at 12 h (μM), MOLP8 cells, 12 h
[4] = Homo sapiens, MOLP-8, 22 h, read-out: MOLP8 Caspase 3/7 AC50 at 22 h (μM), MOLP8 cells, 22 h
[5] = read-out: MOLP8 Caspase 3/7 AC50 at 6 h, MOLP8 cells, 6 h
[6] = read-out: MOLP8 Caspase 3/7 AC50 at 12 h, MOLP8 cells, 12 h
[7] = read-out: MOLP8 Caspase 3/7 AC50 at 22 h, MOLP8 cells, 22 h

Myeloid Cell Leukemia 1 (Mcl-1), sequence (Q07820 whole entry): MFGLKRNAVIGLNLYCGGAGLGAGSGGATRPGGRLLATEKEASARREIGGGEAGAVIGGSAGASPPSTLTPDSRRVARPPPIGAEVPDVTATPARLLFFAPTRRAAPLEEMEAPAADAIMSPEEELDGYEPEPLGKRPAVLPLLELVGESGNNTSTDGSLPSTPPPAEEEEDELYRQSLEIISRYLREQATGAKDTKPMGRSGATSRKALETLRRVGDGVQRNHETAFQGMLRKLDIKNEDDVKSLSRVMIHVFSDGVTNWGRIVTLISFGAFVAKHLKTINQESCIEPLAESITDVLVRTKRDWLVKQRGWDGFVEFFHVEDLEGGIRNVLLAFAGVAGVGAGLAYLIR

SMILES	Ki [1]	AC50 (MOLP8 cell line; [2])	AC50 (MOLP8 cell line; [3])	AC50 (MOLP8 cell line; [4])	AC50 (MOLP8 cell line; [5])	AC50 (MOLP8 cell line; [6])	AC50 (MOLP8 cell line; [7])
Cc1c2c(nn1C)CSCc1cc(n(CCN3CCOCC3)n1)CSc1cc(c3ccccc3c1)OCCCc1c(C(=O)O)n(C)c3c-2c(Cl)ccc13 [Compound 9]	0.05 nM	0.1 µM	0.097 µM	0.1 µM	–	–	–
Cc1c2c(nn1CCO)CN(C)Cc1cc(n(C)n1)CSc1cc(c3ccccc3c1)OCCCc1c(C(=O)O)n(C)c3c-2c(Cl)ccc13 (single isomer, unassigned) [Compound 37]	0.06 nM and 0.04 nM	–	–	–	0.71 µM	0.62 µM	0.56 µM
Cc1c2c(nn1C)CSCc1cc(nn1CCN1CCOCC1)CSc1cc(c3ccccc3c1)OCCCc1c(C(=O)O)n(C)c3c-2c(Cl)ccc13 [Compound 8]	0.13 nM and 0.08 nM	0.24 µM	0.24 µM	0.25 µM	–	–	–
Cc1c2c(nn1CCCN1CCOCC1)CN(C)Cc1cc(n(C)n1)CSc1cc(c3ccccc3c1)OCCCc1c(C(=O)O)n(C)c3c-2c(Cl)ccc13 (single isomer, unassigned) [Compound 35]	0.04 nM	–	–	–	0.15 µM	0.15 µM	0.15 µM
CCn1nc2cc1CSCc1nn(C)c(C)c1-c1c(Cl)ccc3c(c(C(=O)O)n(C)c13)CCCOc1cc(cc3ccccc13)SC2 [Compound 1]	0.15 nM	0.13 µM	0.13 µM	0.11 µM	–	–	–
Cc1nn(CCO)c2c1-c1c(Cl)ccc3c(c(C(=O)O)n(C)c13)CCCOc1cc(cc3ccccc13)SCc1cc(nn1C)CN(C)C2 (single isomer, unassigned) [Compound 39]	0.06 nM and 0.05 nM	–	–	–	0.65 µM	0.85 µM	0.65 µM
Cc1c2c(nn1C)CSCc1cc(n(CCO)n1)CSc1cc(c3ccccc3c1)OCCCc1c(C(=O)O)n(C)c3c-2c(Cl)ccc13 [Compound 7]	< 0.094 nM	0.47 µM	0.45 µM	0.46 µM	–	–	–
Cc1c2c(nn1C)CSCc1cc(n(CCN(C)C)n1)CSc1cc(c3ccccc3c1)OCCCc1c(C(=O)O)n(C)c3c-2c(Cl)ccc13 [Compound 5]	0.06 nM and 0.08 nM	0.08 µM	0.08 µM	0.07 µM	–	–	–
COCCn1nc(C)c2c1CN(C)Cc1cc(n(C)n1)CSc1cc(c3ccccc3c1)OCCCc1c(C(=O)O)n(C)c3c-2c(Cl)ccc13 (single isomer, unassigned) [Compound 25]	0.04 nM	–	–	–	0.09 µM	0.1 µM	0.11 µM
Cc1c2c(nn1C)CSCc1cc(n(CC3CCOCC3)n1)CSc1cc(c3ccccc3c1)OCCCc1c(C(=O)O)n(C)c3c-2c(Cl)ccc13 [Compound 12]	0.05 nM and 0.08 nM	0.18 µM	0.18 µM	0.13 µM	–	–	–
Cc1c2c(nn1C)CSCc1cc(nn1CCN(C)C)CSc1cc(c3ccccc3c1)OCCCc1c(C(=O)O)n(C)c3c-2c(Cl)ccc13 [Compound 4]	0.09 nM and 0.1 nM	0.22 µM	0.25 µM	0.23 µM	–	–	–
